≈ marks a conversion by molar mass, not a printed value.
The compounds below were run on Staphylococcus aureus (assay: Antibacterial activity against Staphylococcus aureus assessed as inhibition of bacterial growth).
Assay type: functional

| Compound | MIC [µg/mL] |
| --- | --- |
| Cc1cc(=O)oc2cc(/N=C3/S/C(=C\c4ccccc4)C(=O)N3CCO)ccc12 | 64 (≈ 157 µM) |
| Cc1cc(=O)oc2cc(/N=C3/S/C(=C\c4ccc[nH]4)C(=O)N3CCO)ccc12 | 64 (≈ 162 µM) |
| Cc1cc(=O)oc2cc(/N=C3/S/C(=C\c4ccc(F)cc4)C(=O)N3CCO)ccc12 | 64 (≈ 151 µM) |
| Cc1cc(=O)oc2cc(/N=C3/S/C(=C\c4ncc[nH]4)C(=O)N3CCO)ccc12 | 8 (≈ 20.2 µM) |
| Cc1cc(=O)oc2cc(/N=C3/S/C(=C\c4ccc(C#N)cc4)C(=O)N3CCO)ccc12 | 1 (≈ 2.32 µM) |
| Cc1cc(=O)oc2cc(/N=C3/S/C(=C\C4CCCCC4)C(=O)N3CCO)ccc12 | 256 (≈ 621 µM) |
| Cc1cc(=O)oc2cc(/N=C3/S/C(=C\c4ccc(Cl)cc4Cl)C(=O)N3CCO)ccc12 | 256 (≈ 539 µM) |

Each compound was assayed on Staphylococcus aureus (assay: Antibacterial activity against methicillin resistant Staphylococcus aureus N315 assessed as inhibition of bacterial growth).
Assay type: functional

| Compound | MIC [µg/mL] |
| --- | --- |
| Cc1cc(=O)oc2cc(/N=C3/S/C(=C\c4ccccc4)C(=O)N3CCO)ccc12 | 64 (≈ 157 µM) |
| Cc1cc(=O)oc2cc(/N=C3/S/C(=C\c4ccc[nH]4)C(=O)N3CCO)ccc12 | 64 (≈ 162 µM) |
| Cc1cc(=O)oc2cc(/N=C3/S/C(=C\c4ccc(F)cc4)C(=O)N3CCO)ccc12 | 64 (≈ 151 µM) |
| Cc1cc(=O)oc2cc(/N=C3/S/C(=C\c4ncc[nH]4)C(=O)N3CCO)ccc12 | 64 (≈ 161 µM) |
| Cc1cc(=O)oc2cc(/N=C3/S/C(=C\c4ccc(C#N)cc4)C(=O)N3CCO)ccc12 | 2 (≈ 4.64 µM) |
| Cc1cc(=O)oc2cc(/N=C3/S/C(=C\C4CCCCC4)C(=O)N3CCO)ccc12 | 256 (≈ 621 µM) |
| Cc1cc(=O)oc2cc(/N=C3/S/C(=C\c4ccc(Cl)cc4Cl)C(=O)N3CCO)ccc12 | 32 (≈ 67.3 µM) |

These compounds were tested on Enterococcus faecalis (assay: Antibacterial activity against Enterococcus faecalis assessed as inhibition of bacterial growth).
Assay type: functional

| Compound | MIC [µg/mL] |
| --- | --- |
| Cc1cc(=O)oc2cc(/N=C3/S/C(=C\c4ccccc4)C(=O)N3CCO)ccc12 | 128 (≈ 315 µM) |
| Cc1cc(=O)oc2cc(/N=C3/S/C(=C\c4ccc[nH]4)C(=O)N3CCO)ccc12 | 128 (≈ 324 µM) |
| Cc1cc(=O)oc2cc(/N=C3/S/C(=C\c4ccc(F)cc4)C(=O)N3CCO)ccc12 | 32 (≈ 75.4 µM) |
| Cc1cc(=O)oc2cc(/N=C3/S/C(=C\c4ncc[nH]4)C(=O)N3CCO)ccc12 | 64 (≈ 161 µM) |
| Cc1cc(=O)oc2cc(/N=C3/S/C(=C\c4ccc(C#N)cc4)C(=O)N3CCO)ccc12 | 4 (≈ 9.27 µM) |
| Cc1cc(=O)oc2cc(/N=C3/S/C(=C\C4CCCCC4)C(=O)N3CCO)ccc12 | 256 (≈ 621 µM) |
| Cc1cc(=O)oc2cc(/N=C3/S/C(=C\c4ccc(Cl)cc4Cl)C(=O)N3CCO)ccc12 | 128 (≈ 269 µM) |

The compounds below were run on Staphylococcus aureus (assay: Antibacterial activity against Staphylococcus aureus ATCC 25923 assessed as inhibition of bacterial growth).
Assay type: functional

| Compound | MIC [µg/mL] |
| --- | --- |
| Cc1cc(=O)oc2cc(/N=C3/S/C(=C\c4ccccc4)C(=O)N3CCO)ccc12 | 128 (≈ 315 µM) |
| Cc1cc(=O)oc2cc(/N=C3/S/C(=C\c4ccc[nH]4)C(=O)N3CCO)ccc12 | 128 (≈ 324 µM) |
| Cc1cc(=O)oc2cc(/N=C3/S/C(=C\c4ccc(F)cc4)C(=O)N3CCO)ccc12 | 128 (≈ 302 µM) |
| Cc1cc(=O)oc2cc(/N=C3/S/C(=C\c4ncc[nH]4)C(=O)N3CCO)ccc12 | 128 (≈ 323 µM) |
| Cc1cc(=O)oc2cc(/N=C3/S/C(=C\c4ccc(C#N)cc4)C(=O)N3CCO)ccc12 | 8 (≈ 18.5 µM) |
| Cc1cc(=O)oc2cc(/N=C3/S/C(=C\C4CCCCC4)C(=O)N3CCO)ccc12 | 256 (≈ 621 µM) |
| Cc1cc(=O)oc2cc(/N=C3/S/C(=C\c4ccc(Cl)cc4Cl)C(=O)N3CCO)ccc12 | 128 (≈ 269 µM) |

The compounds below were run on Staphylococcus aureus (assay: Antibacterial activity against Staphylococcus aureus ATCC 29213 assessed as inhibition of bacterial growth).
Assay type: functional

| Compound | MIC [µg/mL] |
| --- | --- |
| Cc1cc(=O)oc2cc(/N=C3/S/C(=C\c4ccccc4)C(=O)N3CCO)ccc12 | 128 (≈ 315 µM) |
| Cc1cc(=O)oc2cc(/N=C3/S/C(=C\c4ccc[nH]4)C(=O)N3CCO)ccc12 | 64 (≈ 162 µM) |
| Cc1cc(=O)oc2cc(/N=C3/S/C(=C\c4ccc(F)cc4)C(=O)N3CCO)ccc12 | 16 (≈ 37.7 µM) |
| Cc1cc(=O)oc2cc(/N=C3/S/C(=C\c4ncc[nH]4)C(=O)N3CCO)ccc12 | 32 (≈ 80.7 µM) |
| Cc1cc(=O)oc2cc(/N=C3/S/C(=C\c4ccc(C#N)cc4)C(=O)N3CCO)ccc12 | 128 (≈ 297 µM) |
| Cc1cc(=O)oc2cc(/N=C3/S/C(=C\C4CCCCC4)C(=O)N3CCO)ccc12 | 16 (≈ 38.8 µM) |
| Cc1cc(=O)oc2cc(/N=C3/S/C(=C\c4ccc(Cl)cc4Cl)C(=O)N3CCO)ccc12 | 128 (≈ 269 µM) |

The compounds below were run on Klebsiella pneumoniae (assay: Antibacterial activity against Klebsiella pneumoniae assessed as inhibition of bacterial growth).
Assay type: functional

| Compound | MIC [µg/mL] |
| --- | --- |
| Cc1cc(=O)oc2cc(/N=C3/S/C(=C\c4ccccc4)C(=O)N3CCO)ccc12 | 256 (≈ 630 µM) |
| Cc1cc(=O)oc2cc(/N=C3/S/C(=C\c4ccc[nH]4)C(=O)N3CCO)ccc12 | 64 (≈ 162 µM) |
| Cc1cc(=O)oc2cc(/N=C3/S/C(=C\c4ccc(F)cc4)C(=O)N3CCO)ccc12 | 256 (≈ 603 µM) |
| Cc1cc(=O)oc2cc(/N=C3/S/C(=C\c4ncc[nH]4)C(=O)N3CCO)ccc12 | 16 (≈ 40.4 µM) |
| Cc1cc(=O)oc2cc(/N=C3/S/C(=C\c4ccc(C#N)cc4)C(=O)N3CCO)ccc12 | 128 (≈ 297 µM) |
| Cc1cc(=O)oc2cc(/N=C3/S/C(=C\C4CCCCC4)C(=O)N3CCO)ccc12 | 256 (≈ 621 µM) |
| Cc1cc(=O)oc2cc(/N=C3/S/C(=C\c4ccc(Cl)cc4Cl)C(=O)N3CCO)ccc12 | 64 (≈ 135 µM) |

These compounds were tested on Escherichia coli (assay: Antibacterial activity against Escherichia coli assessed as inhibition of bacterial growth).
Assay type: functional

| Compound | MIC [µg/mL] |
| --- | --- |
| Cc1cc(=O)oc2cc(/N=C3/S/C(=C\c4ccccc4)C(=O)N3CCO)ccc12 | 256 (≈ 630 µM) |
| Cc1cc(=O)oc2cc(/N=C3/S/C(=C\c4ccc[nH]4)C(=O)N3CCO)ccc12 | 2 (≈ 5.06 µM) |
| Cc1cc(=O)oc2cc(/N=C3/S/C(=C\c4ccc(F)cc4)C(=O)N3CCO)ccc12 | 128 (≈ 302 µM) |
| Cc1cc(=O)oc2cc(/N=C3/S/C(=C\c4ncc[nH]4)C(=O)N3CCO)ccc12 | 32 (≈ 80.7 µM) |
| Cc1cc(=O)oc2cc(/N=C3/S/C(=C\c4ccc(C#N)cc4)C(=O)N3CCO)ccc12 | 256 (≈ 593 µM) |
| Cc1cc(=O)oc2cc(/N=C3/S/C(=C\C4CCCCC4)C(=O)N3CCO)ccc12 | 256 (≈ 621 µM) |
| Cc1cc(=O)oc2cc(/N=C3/S/C(=C\c4ccc(Cl)cc4Cl)C(=O)N3CCO)ccc12 | 256 (≈ 539 µM) |

These compounds were tested on Escherichia coli (assay: Antibacterial activity against Escherichia coli ATCC 25922 assessed as inhibition of bacterial growth).
Assay type: functional

| Compound | MIC [µg/mL] |
| --- | --- |
| Cc1cc(=O)oc2cc(/N=C3/S/C(=C\c4ccccc4)C(=O)N3CCO)ccc12 | 256 (≈ 630 µM) |
| Cc1cc(=O)oc2cc(/N=C3/S/C(=C\c4ccc[nH]4)C(=O)N3CCO)ccc12 | 128 (≈ 324 µM) |
| Cc1cc(=O)oc2cc(/N=C3/S/C(=C\c4ccc(F)cc4)C(=O)N3CCO)ccc12 | 128 (≈ 302 µM) |
| Cc1cc(=O)oc2cc(/N=C3/S/C(=C\c4ncc[nH]4)C(=O)N3CCO)ccc12 | 64 (≈ 161 µM) |
| Cc1cc(=O)oc2cc(/N=C3/S/C(=C\c4ccc(C#N)cc4)C(=O)N3CCO)ccc12 | 256 (≈ 593 µM) |
| Cc1cc(=O)oc2cc(/N=C3/S/C(=C\C4CCCCC4)C(=O)N3CCO)ccc12 | 256 (≈ 621 µM) |
| Cc1cc(=O)oc2cc(/N=C3/S/C(=C\c4ccc(Cl)cc4Cl)C(=O)N3CCO)ccc12 | 256 (≈ 539 µM) |

These compounds were tested on Pseudomonas aeruginosa (assay: Antibacterial activity against Pseudomonas aeruginosa assessed as inhibition of bacterial growth).
Assay type: functional

| Compound | MIC [µg/mL] |
| --- | --- |
| Cc1cc(=O)oc2cc(/N=C3/S/C(=C\c4ccccc4)C(=O)N3CCO)ccc12 | 64 (≈ 157 µM) |
| Cc1cc(=O)oc2cc(/N=C3/S/C(=C\c4ccc[nH]4)C(=O)N3CCO)ccc12 | 256 (≈ 647 µM) |
| Cc1cc(=O)oc2cc(/N=C3/S/C(=C\c4ccc(F)cc4)C(=O)N3CCO)ccc12 | 32 (≈ 75.4 µM) |
| Cc1cc(=O)oc2cc(/N=C3/S/C(=C\c4ncc[nH]4)C(=O)N3CCO)ccc12 | 32 (≈ 80.7 µM) |
| Cc1cc(=O)oc2cc(/N=C3/S/C(=C\c4ccc(C#N)cc4)C(=O)N3CCO)ccc12 | 128 (≈ 297 µM) |
| Cc1cc(=O)oc2cc(/N=C3/S/C(=C\C4CCCCC4)C(=O)N3CCO)ccc12 | 256 (≈ 621 µM) |
| Cc1cc(=O)oc2cc(/N=C3/S/C(=C\c4ccc(Cl)cc4Cl)C(=O)N3CCO)ccc12 | 64 (≈ 135 µM) |

These compounds were tested on Pseudomonas aeruginosa (assay: Antibacterial activity against Pseudomonas aeruginosa ATCC 27853 assessed as inhibition of bacterial growth).
Assay type: functional

| Compound | MIC [µg/mL] |
| --- | --- |
| Cc1cc(=O)oc2cc(/N=C3/S/C(=C\c4ccccc4)C(=O)N3CCO)ccc12 | 64 (≈ 157 µM) |
| Cc1cc(=O)oc2cc(/N=C3/S/C(=C\c4ccc[nH]4)C(=O)N3CCO)ccc12 | 32 (≈ 80.9 µM) |
| Cc1cc(=O)oc2cc(/N=C3/S/C(=C\c4ccc(F)cc4)C(=O)N3CCO)ccc12 | 64 (≈ 151 µM) |
| Cc1cc(=O)oc2cc(/N=C3/S/C(=C\c4ncc[nH]4)C(=O)N3CCO)ccc12 | 128 (≈ 323 µM) |
| Cc1cc(=O)oc2cc(/N=C3/S/C(=C\c4ccc(C#N)cc4)C(=O)N3CCO)ccc12 | 256 (≈ 593 µM) |
| Cc1cc(=O)oc2cc(/N=C3/S/C(=C\C4CCCCC4)C(=O)N3CCO)ccc12 | 16 (≈ 38.8 µM) |
| Cc1cc(=O)oc2cc(/N=C3/S/C(=C\c4ccc(Cl)cc4Cl)C(=O)N3CCO)ccc12 | 128 (≈ 269 µM) |

What follows are compounds tested on Acinetobacter baumannii (assay: Antibacterial activity against Acinetobacter baumannii assessed as inhibition of bacterial growth).
Assay type: functional

| Compound | MIC [µg/mL] |
| --- | --- |
| Cc1cc(=O)oc2cc(/N=C3/S/C(=C\c4ccccc4)C(=O)N3CCO)ccc12 | 1 (≈ 2.46 µM) |
| Cc1cc(=O)oc2cc(/N=C3/S/C(=C\c4ccc[nH]4)C(=O)N3CCO)ccc12 | 4 (≈ 10.1 µM) |
| Cc1cc(=O)oc2cc(/N=C3/S/C(=C\c4ccc(F)cc4)C(=O)N3CCO)ccc12 | 4 (≈ 9.42 µM) |
| Cc1cc(=O)oc2cc(/N=C3/S/C(=C\c4ncc[nH]4)C(=O)N3CCO)ccc12 | 16 (≈ 40.4 µM) |
| Cc1cc(=O)oc2cc(/N=C3/S/C(=C\c4ccc(C#N)cc4)C(=O)N3CCO)ccc12 | 0.5 (≈ 1.16 µM) |
| Cc1cc(=O)oc2cc(/N=C3/S/C(=C\C4CCCCC4)C(=O)N3CCO)ccc12 | 64 (≈ 155 µM) |
| Cc1cc(=O)oc2cc(/N=C3/S/C(=C\c4ccc(Cl)cc4Cl)C(=O)N3CCO)ccc12 | 4 (≈ 8.41 µM) |

Reference: ChEMBL document CHEMBL5131495, “Discovery of unique thiazolidinone-conjugated coumarins as novel broad spectrum antibacterial agents” (Eur J Med Chem, 2022)
